In patent US20170298361A1, “USE OF AGENTS FOR TREATING FAT-RELATED DISORDERS” (Yeda Research and Development Co. Ltd., priority 2014, published 2017):
Entries after “also recorded” stand apart in the source; their conditions may differ. Peptide text beside a SMILES is read from it. * marks the point of attachment. Cbz = O=C(OCc1ccccc1)*

Tests used:
PPARγ2 = PPARγ2 accumulation after proteasomal inhibition in c-Abl-depleted 3T3-L1 cells (immunoblotting); type: cell-based, mouse; settings: c-Abl-depleted 3T3-L1, day 5 of differentiation, 25 μg MG-132, lysed after 5 h
Experimental: FIGS. 2A-C illustrate that c-Abl prolongs PPARγ2 half-life. (A) Proteasomal inhibition in mid-differentiation results in PPARγ2 accumulation. 3T3-L1 cells expressing shRNA to GFP (control) or c-Abl were induced to differentiate using insulin, dexamethasone and IBMX. On day 5, cells were treated with 25 μg MG-132 and lysed after 5 h. Protein levels were analyzed by immunoblotting. (B) c-Abl stabilizes PPARγ2. HEK293 cells were transfected with plasmids expressing HA-PPARγ2 with or without active c-Abl. Twenty-four hours after transfection, cells were treated with 20 μg/ml cycloheximide for different time points. […] The ratio between immunoprecipitated poly-ubiquitinated PPARγ2 ladder and PPARγ2 protein level from 3 independent experiments was quantified (*** −p<0.005).
The present inventors investigated whether c-Abl might play a role in PPARγ2 accumulation. […] Next, the present inventors measured PPARγ2 protein half-life in the presence or absence of an active form of c-Abl (41-81 c-Abl). […] To investigate the possibility that c-Abl supports PPARγ2 stabilization via inhibition of the poly-ubiquitination of PPARγ2, an octameric tandem fusion of HA-tagged ubiquitin was co-expressed together with Flag-tagged PPARγ2 with or without active c-Abl and the pattern of the poly-ubiquitinated PPARγ2 ladder was analyzed.

3T3-L1 cells = test: Adipocyte differentiation of 3T3-L1 cells, oil red O staining; type: cell-based, mouse
Experimental: FIGS. 1A-E illustrate that c-Abl is required for adipocyte differentiation. (A) c-Abl activity increases during adipogenesis. 3T3-L1 adipoblasts were induced to differentiate with medium containing 5 μg/ml Insulin, 1 μM Dexamethasone and 0.5 mM IBMX. Cells were lysed at the indicated times and protein levels were analyzed by Western blotting. The proteasomal subunit PSMA4 served as a loading control. […] Cells were stained with oil red O and photographed at day 8. (C) c-Abl is required in adipocyte differentiation. 3T3-L1 expressing shRNA against either GFP or c-Abl were induced to differentiate and stained with oil red 0 at day 10. (D) c-Abl is required for expression of PPARγ and its target genes during adipogenesis. 3T3-L1 cells expressing shRNA against either GFP or c-Abl were induced to differentiate as in (A). Cells were lysed at the indicated times and protein levels were analyzed by Western blotting. (E) c-Abl is required for transcription of PPARγ pro-adipogenic target genes but not for transcription of PPARγ itself. At day 4 of differentiation, RNA from 3T3-L1 cells was analyzed for mRNA expression of the indicated genes by quantitative PCR.
FIG. 15 are photographs illustrating differentiation of 3T3-L1 preadipocytes with or without Chk1 inhibitor, UCN-01. […]

[1] = test system: mesenchymal stromal cells; settings: Fitter S, et al. (2008); cited from earlier work
CML patients = settings: Fitter S, et al. (2010); cited from earlier work
[2] = test system: PPARγ2 (wild type, Flag-tagged)

In the case of CC(C)C[C@@H](C=O)NC(=O)[C@H](CC(C)C)NC(=O)[C@H](CC(C)C)NC(=O)OCc1ccccc1 [MG-132] (Cbz-Leu-Leu-Leu-aldehyde), the PPARγ2 protein level (PPARγ2) is reported as “markedly increased”.
In the case of Cc1ccc(NC(=O)c2ccc(CN3CCN(C)CC3)cc2)cc1Nc1nccc(-c2cccnc2)n1 [STI-571, imatinib], the “adipogenesis (adipocyte differentiation)” value (3T3-L1 cells; 3T3-L1 induced with insulin, dexamethasone, IBMX, STI-571 added 7 hours after differentiation onset until day 5, oil red O at day 8, even at low inhibitor concentration) is listed as “markedly reduced; also recorded: inhibits adipocyte differentiation”, the “adipocytic differentiation of mesenchymal stromal cells” value [1] is listed as “promote adipocytic differentiation” and the fat accumulation (CML patients) is listed as “associated with fat accumulation”. The insulin sensitivity (CML patients) was “improved insulin sensitivity”.
In the case of c-Abl Δ1-81 (active form of c-Abl), the “tyrosine phosphorylation detected with anti-phosphotyrosine antibody (PY20) after immunoprecipitation using anti-HA beads” value (HA-PPARγ1) is reported as “HA-PPARγ1 was only poorly phosphorylated by c-Abl”, the “tyrosine phosphorylation of PPARγ2 detected with anti-phosphotyrosine antibody (PY20) after immunoprecipitation” value [2] is reported as “unlike HA-PPARγ2, HA-PPARγ1 was only poorly phosphorylated by c-Abl (FIG. 3D). Similar results were obtained using Flag-PPARγ2” and the “tyrosine phosphorylation detected with anti-phosphotyrosine antibody (PY20) after immunoprecipitation using anti-Flag beads” value (PPARγ2 P12A variant) is reported as “the P12A variant was inefficient in binding to c-Abl and in undergoing phosphorylation by the kinase”.
In the case of CN[C@@H]1C[C@H]2O[C@@](C)([C@@H]1OC)n1c3ccccc3c3c4c(c5c6ccccc6n2c5c31)C(=O)N[C@@H]4O [UCN-01], the “differentiation of 3T3-L1 preadipocytes” value (3T3-L1 cells; with or without Chk1 inhibitor UCN-01 (FIG. 15)) is reported as “completely inhibit”.
